Experimental findings from a melting point compilation (Tetko et al.; mined from patent text by program, amines drawn as free bases though some values may be those of a salt) are described below.

Compound `Cc1nc2ccccc2n1-c1ccc(I)cc1` showed a melting point of 136 to 137 °C.
For `Cc1cc(-c2cnn3c(C(F)(F)F)cc(-c4ccc(C)c(C(F)(F)F)c4)nc23)cc(C)n1` the value was 258 °C; for `CCN1C(=O)Cc2cc3c(cc21)C(=O)CO3`, 181 to 184 °C.
The same measure for `O=C1Nc2cccc(Cl)c2C(=O)N2C=CC[C@@H]12`: 249 to 251 °C; for `c1ccc(-n2c(-c3ccc(-c4ccc(-c5nc6c7ccccc7c7ccccc7c6n5-c5ccccc5)cc4)cc3)nc3c4ccccc4c4ccccc4c32)cc1`: 402 °C; for `CCc1noc(-c2cn(-c3cccc(OC)c3)cn2)n1`: 89 to 90 °C.
In turn, `Cc1c(C(=O)OC(C)C)ncc2c1c1c(OCc3ccccc3)cccc1n2CC(=O)N(C)CCc1ccccc1` registered a melting point of 69 to 74 °C.
The same measure for `NCCCCNC(=O)C(=O)NCCCCN`: 106 to 108 °C; for `CC(OCc1cc2cc(C(F)(F)F)ccc2n1S(=O)(=O)c1ccc2c(c1)OCCN2C)C(=O)O` (configuration not stated): 118 to 120 °C; for `CC(C)c1cc(CCC(=O)O)n(Cc2ccc(Cl)cc2Cl)n1`: 105 to 108 °C.
For `Cc1oc(-c2ccccc2)nc1COc1ccc(CCl)cn1` the value was 86 to 87 °C; for `COC(=O)c1cc(O)cnc1C1=NC(=O)C(C)(C(C)C)N1` (configuration not stated), 200 to 205 °C.
For `CSc1nc(-c2ccccc2)n(-c2ccc(F)cc2)c(=O)c1C#N` the value was 204 to 205 °C; for `CC(C)(C)c1ccc(CCC(=O)CCC2CCCCCC2)cc1NC(=O)CC1c2ccccc2Oc2ccccc21`, 136 to 137 °C; for `C#CCOc1cc(Oc2ccc(F)cc2)ncn1`, 81.4 °C.
The compound `COc1ccc(Cn2c(C)c(C=O)c3cnnc(OCc4ccccc4)c32)cc1` displayed a melting point of 139 to 145 °C.
The same measure for `CCOC(=O)C(=O)Nc1cc(C(F)(F)F)cc(C(F)(F)F)c1[N+](=O)[O-]`: 115 °C; for `Fc1ccc(Cn2c(NC3CCN(CCSc4ncccn4)CC3)nc3ccccc32)cc1`: 146 to 148 °C; for `CC(C)(C)OC(=O)NCCc1ccc(CC(=O)O)cc1`: 94 to 95 °C.
For `FC(F)(F)c1cc(Br)cc(OCc2ccc3ccccc3c2)c1` the value was 68 to 70 °C; for `COc1cccc2c(Nc3ccc(C(=O)NC4CCN(Cc5ccccc5)CC4)cc3)c(C(N)=O)cnc12`, 154 to 162 °C; for `FC(F)(F)c1ccc(COc2ccnc(CSc3nc4cscc4[nH]3)c2)cc1`, 141 to 143 °C.
The same measure for `CC1(C)Cc2c(N)c(Cl)cc(C(=O)NC3CCN(CCNc4nc(O)c5cc(Cl)ccc5n4)CC3)c2O1`: 207 °C; for `COc1nn(-c2cccc(N3CCCC3=O)c2)c(=O)n(Cc2ccc(Cl)cc2)c1=O`: 91 to 93 °C; for `CCOC(=O)c1ccc(NC(C)c2ccccc2)cc1` (configuration not stated): 88 °C.
Consider `CSc1ncc2ccc(Cl)nc2n1`, for which the melting point lay in the range of 201 to 203 °C.
For `Cc1cc(=O)c(-c2ccc(Oc3ccc(Cl)cc3)cc2)c(C)n1O` the value was 232 to 236 °C.
Consider `O=C(c1ccco1)C1C(=O)N(C(=O)Nc2ccc(F)cc2F)c2ccccc21` (configuration not stated), for which the melting point was 191 to 192 °C.
For `Cc1nnc2ccc(-c3cccc(NC(=O)C(C)(C)C)c3)nn12` the value was 256 to 258 °C; for `Nc1ccc2c(c1Br)COC2=O`, 176 to 180 °C; for `Cc1ccc(S(=O)(=O)OC(c2cccc(C(OS(=O)(=O)c3ccc(C)cc3)(C(F)(F)F)C(F)(F)F)c2)(C(F)(F)F)C(F)(F)F)cc1`, 131 °C.
For `COc1ccc(Nc2nnc(Cc3ccncc3)c3ccccc23)cc1` the value was 223 to 224 °C; for `CC(C)CCCC(C)NC(=O)CCC(=O)c1ccccc1` (configuration not stated), 84 to 87 °C; for `CCCc1cc2cc(O)ccc2c(Oc2ccc(/C=C/C(=O)O)cc2)c1-c1ccccc1`, 120 to 122 °C.
Consider `CCOc1c(C#N)oc2c3ccccc3n(-c3ccccc3)c12`, for which the melting point was in the range of 121 to 122 °C.
For `CCOC(=O)c1ccc(NC2CCCc3ccccc32)cc1` (configuration not stated) the value was 34 °C; for `c1ccc(C(Oc2ccc(-c3nc(COc4ccc(CCCn5ccnc5)cc4)co3)cc2)c2ccccc2)cc1`, 106 to 107 °C; for `COCCOc1ccc(C(=O)C(=O)O)cc1`, 129 to 130 °C.
`COc1ccc2[nH]c(SCc3nccc(N4CCOCC4)c3F)nc2c1`: the melting point lay in the range of 121 to 123 °C.
The same measure for `COC(=O)c1ccc(C=O)cc1SCc1ccccc1`: 91 to 93 °C; for `c1ccc2c(c1)ncc1nncn12`: 238 to 239 °C.
For `O=C(NC1CCCC1)c1ccc(-c2ccc3c(c2)CCN(CCN2CCCC2)C3=O)cc1` the value was 258 to 260 °C.
The same measure for `Cc1ccc(C2NCCc3c2[nH]c2ccccc32)cc1` (configuration not stated): 207 to 209 °C; for `COc1ccc(CC(=O)Nc2ccc3c(c2)[C@@H](OCCc2ccccc2)[C@H](O)C(C)(C)O3)cc1` (relative stereo): 161 to 162 °C; for `CCCCCCCCCCCCCCCC(=O)OCC(COC(=O)CCCCCCCCCCCCCCC)OCn1cnc2c(=O)[nH]c(N)nc21`: 150 to 154 °C.
In the case of `Cc1cc(C)c2ncc(C#N)c(-c3ccccc3Cl)c2c1`, the melting point was 153 to 154 °C.
The same measure for `CC(C(=O)O)c1ccc(-c2ccc(O)cc2)c(F)c1` (configuration not stated): 195 to 197 °C; for `NCC#CCCCC(=O)O`: 180 to 183 °C; for `CC(=O)Nc1cc(-c2ccncn2)c[nH]c1=O`: > 250 °C.
For `O=C1CCC(c2ccccc2)(c2ccccc2)C2CN(C(Cc3ccccc3)=NC(c3ccccc3)c3ccccc3)CC12` (configuration not stated), the melting point is 172 °C.
In turn, `CN(C(=O)c1cnc(N2CC(C)(C)NC2=O)nc1N)c1cccc(C(F)(F)F)c1` showed a melting point of 210 to 211 °C.
For `COc1ccc(Cc2nc3n(c2-c2ccccc2)CCS3)cc1`, the melting point fell in the range of 273 to 274 °C.
For `COc1ccccc1CNc1ccc2c(C(=N)c3ccc(F)cc3)cccc2n1` the value was 155 °C; for `C=CCn1c(C)c(C)c2cnnc(SCc3ccc(Cl)cc3)c21`, 107 to 108 °C.
For `O=C(NC1CCN(CCCc2ccccc2)C1)C12CC3CC(CC(C3)C1)C2` (configuration not stated) the value was 118 to 120 °C; for `NC(=O)c1nc(-c2cccc(O)c2)nc2c1[nH]c(=O)n2-c1cccc2c1CCCC2`, > 250 °C.
`CCn1cc(CN(C(=O)C2CCCc3ccccc32)c2ccc(C(C)C)cc2)cn1` (configuration not stated) had a melting point of 75 to 76 °C.
The same measure for `Cn1nnnc1SCC1=C(C(=O)O)N2C(=O)C(NC(=O)Cn3ccnc3S(C)(=O)=O)C2SC1` (configuration not stated): 230 °C; for `CCOc1cc(C(=O)O)cc(N)c1C(=O)c1ccccc1`: 230 °C.
For `Cc1oc(-c2ccccc2)nc1COc1ccc(CN(O)C(N)=O)c(Cl)c1` the value was 145 to 147 °C; for `CN1C(=O)CC[C@]2(C)c3ccc(-c4cc(C(C)(C)C)c(O)c(C(C)(C)C)c4)cc3CC[C@@H]12`, > 265 °C; for `O=C(Nc1nccs1)c1cn(CC2CC2)c2cc(Cl)ccc12`, 185 to 187 °C.
The same measure for `O=C(O)C1=Cc2cc(-c3ccc(OC(F)(F)F)cc3)ccc2S(=O)(=O)CC1`: 284 to 285 °C; for `CCOC(=O)C(Oc1ccc(Oc2ccc(C#N)cc2)cc1)C(=O)OCC`: 42 to 46 °C; for `Cc1ccc(CC2(O)CCN(CC3Cc4cc(O)ccc4N3)CC2)cc1` (racemic): 90 to 94 °C.
The compound `CN(C)Cc1ccc2c(c1)Cc1c(-c3cccs3)n[nH]c1-2` yielded a melting point of 204 to 206 °C.
Regarding `CCOC(=O)c1ccccc1NC(=O)NCC1(c2ccccc2)CCCCC1`, the melting point was in the range of 99 to 101 °C.
The same measure for `COc1cc(OC)c2c(=O)c(OCCCOc3ccc(C(C)=C4SC(=O)NC4=O)cc3)c(-c3ccc(OC)c(OC)c3)oc2c1`: 198 to 200 °C.
The same measure for `N#Cc1ccc(Cn2nc(-c3ccccc3O)nc2-c2ccccc2O)cc1`: 147 to 149 °C; for `CCCN1CCNC1=C[N+](=O)[O-]`: 147 to 148 °C; for `CC(C)(C)C(=O)CN1C(=O)C(NC(=O)Nc2cccc3ccccc23)CN(C2CCCCC2)c2ccccc21` (configuration not stated): 200 to 203 °C.
The same measure for `CCOC(=O)Nn1cccc1C(=O)c1ccc(Cl)cc1Cl`: 114 to 116 °C; for `O=C(NCc1ccccc1Cl)c1cccnc1Oc1cccc(F)c1`: 115 to 117 °C; for `NS(=O)(=O)c1cc2c(cc1Cl)NC(c1ccccc1)NS2(=O)=O` (configuration not stated): 235 to 238 °C.
Compound `CCOCc1nc2c(N)nc3cc(Br)cnc3c2n1CC(C)(C)NC(=O)OC(C)(C)C` came in with a melting point of 176 to 178 °C.
For `CCOC(=O)CC(=O)c1cc(F)c(F)c(Br)c1F` the value was 85 to 88 °C.
For `CC(=O)Nc1cnc2c(NC(=O)c3c(Cl)cccc3Cl)cccc2c1` the value was 244 to 245 °C; for `CC(=O)Nc1ccc(-c2c[nH]c(=O)c(C)n2)cc1`, > 300 °C; for `CC(C)(Oc1ccc(OCc2nc(-c3ccc(C(C)(C)C)cc3)no2)cc1)C(=O)O`, 138 to 140 °C.
For `COCCOc1ccc([N+](=O)[O-])cc1[N+](=O)[O-]` the value was 31 to 33 °C; for `CC(C)c1nc(C(C)C)c(CCc2ccccc2)c(-c2ccc(F)cc2)c1CO`, 158 to 159 °C.
The compound `COc1ccccc1-c1nc(N)ncc1-c1ccc(=O)[nH]n1` had a melting point of 273 °C.
The same measure for `CCS(=O)(=O)c1ccccc1S(N)(=O)=O`: 179 to 181 °C; for `CCC(=O)CC(=O)c1ccc(C(=O)CC(=O)CC)cc1`: 122 to 124 °C.
For `N#CNC=Nc1ccc(-c2ncc[nH]2)cc1` the value was 202 to 203 °C; for `COc1c2c(cc3ccccc13)C(=O)NC2=O`, 216 to 220 °C.
The same measure for `CCSc1ccc(Cl)nc1C#N`: 79 to 81 °C.

As usually defined, the melting point is the temperature of the solid-liquid transition.
